Measurements from patent US9796741B2 (Achillion Pharmaceuticals, Inc., priority 2014, dated 2017).

The molecules below were run against Human factor D (Homo sapiens (Human), UniProt P00746) (assay: Human Factor D Assay). Conditions: human factor D 80 nM, substrate Z-L-Lys-SBzl, DTNB.
Assay type: biochemical
Experimental: Human factor D (purified from human serum, Complement Technology, Inc.) at 80 nM final concentration is incubated with test compound at various concentrations for 5 minutes at room temperature in 50 mM Tris, 1M NaCl, pH 7.5. A synthetic substrate Z-L-Lys-SBzl and DTNB (Ellman's reagent) are added to final concentrations of 100 μM each. The increase in color is recorded at OD405 nm in a microplate in kinetic mode over 30 minutes with 30 second time points in a spectrofluorimeter. IC50 values are calculated by non-linear regression from the percentage of inhibition of complement factor D activity as a function of test compound concentration.

Chain of Human factor D (P00746 26-253): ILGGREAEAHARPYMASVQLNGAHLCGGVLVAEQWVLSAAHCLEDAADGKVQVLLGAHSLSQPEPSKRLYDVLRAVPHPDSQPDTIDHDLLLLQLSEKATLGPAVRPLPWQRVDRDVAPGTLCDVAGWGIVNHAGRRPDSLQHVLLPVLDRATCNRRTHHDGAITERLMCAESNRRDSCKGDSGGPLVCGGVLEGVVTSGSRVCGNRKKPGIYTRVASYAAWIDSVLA

SMILES	IC50 [nM]
NC(=O)c1nn(CC(=O)N2C[C@H](F)C[C@H]2C(=O)Nc2cccc(-c3ccccc3Cl)c2F)c2ccc(-c3cn[nH]c3)cc12 [Compound 1]	< 1000
NC(=O)c1nn(CC(=O)N2C[C@H](F)C[C@H]2C(=O)Nc2cccc(-c3ccccc3Cl)c2F)c2ccc(-c3cncnc3)cc12 [Compound 2]	< 1000
NC(=O)c1nn(CC(=O)N2C[C@H](F)C[C@H]2C(=O)Nc2cccc(Br)n2)c2ccc(-c3ccc(N4CCOCC4)cc3)cc12 [Compound 3, 1-(2-((2S,4R)-2-((6-Bromopyridin-2-yl)carbamoyl)-4-fluoropyrrolidin-1-yl)-2-oxoethyl)-5-(4-morphlinophenyl)-1H-indazole-3-carboxamide]	< 1000
NC(=O)c1nn(CC(=O)N2[C@@H]3C[C@@H]3C[C@H]2C(=O)Nc2cccc(Br)n2)c2ccc(-c3cncnc3)cc12 [Compound 4]	< 1000
NC(=O)c1nn(CC(=O)N2C[C@H](F)C[C@H]2C(=O)Nc2cccc(Br)n2)c2ccc(-c3cncnc3)cc12 [Compound 5, 1-(2-((2S,4R)-2-(6-bromopyridin-2-ylcarbamoyl)-4-fluoropyrrolidin-1-yl)-2-oxoethyl)-5-(pyrimidin-5-yl)-1H-indazole-3-carboxamide]	< 1000
NC(=O)c1nn(CC(=O)N2[C@@H]3C[C@@H]3C[C@H]2C(=O)Nc2cccc(-c3ccccc3Cl)c2F)c2ccc(-c3cncnc3)cc12 [Compound 6, 1-(2-((1R,3S,5R)-3-(2′-chloro-2-fluorobiphenyl-3-ylcarbamoyl)-2-azabicyclo[3.1.0]hexan-2-yl)-2-oxoethyl)-5-(pyrimidin-5-yl)-1H-indazole-3-carboxamide]	< 1000
NC(=O)c1nn(CC(=O)N2[C@@H]3C[C@@H]3C[C@H]2C(=O)Nc2cccc(-c3ccccc3Cl)c2F)c2ccc(-c3ncccn3)cc12 [Compound 7, 1-(2-((1R,3S,5R)-3-(2′-chloro-2-fluorobiphenyl-3-ylcarbamoyl)-2-azabicyclo[3.1.0]hexan-2-yl)-2-oxoethyl)-5-(pyrimidin-2-yl)-1H-indazole-3-carboxamide]	< 1000
NC(=O)c1nn(CC(=O)N2[C@@H]3C[C@@H]3C[C@H]2C(=O)Nc2cccc(OC(F)(F)F)c2F)c2ccc(-c3cncnc3)cc12 [Compound 8, 1-(2-((1R,3S,5R)-3-(2-fluoro-3-(trifluoromethoxy)phenylcarbamoyl)-2-azabicyclo[3.1.0]hexan-2-yl)-2-oxoethyl)-5-(pyrimidin-5-yl)-1H-indazole-3-carboxamide]	< 1000
NC(=O)c1nn(CC(=O)N2C[C@H](F)C[C@H]2C(=O)Nc2cccc(OC(F)(F)F)c2F)c2ccc(-c3cncnc3)cc12 [Compound 9, 1-(2-((2S,4R)-4-fluoro-2-(2-fluoro-3-(trifluoromethoxy)phenylcarbamoyl)pyrrolidin-1-yl)-2-oxoethyl)-5-(pyrimidin-5-yl)-1H-indazole-3-carboxamide]	< 1000
NC(=O)c1nn(CC(=O)N2C[C@H](F)C[C@H]2C(=O)Nc2cccc(-c3ccccc3Cl)c2F)c2ccc(-c3cnc(N4CCCC4)nc3)cc12 [Compound 10]	< 1000
NC(=O)c1nn(CC(=O)N2[C@@H]3C[C@@H]3C[C@H]2C(=O)Nc2cccc(Br)n2)c2ccc(-c3cnc(N4CCCC4)nc3)cc12 [Compound 11]	< 1000
NC(=O)c1nn(CC(=O)N2C[C@H](F)C[C@H]2C(=O)Nc2cccc(-c3ccccc3Cl)c2F)c2ccc(-c3ccc(F)nc3)cc12 [Compound 12, 1-(2-((2S,4R)-2-((2′-Chloro-2-fluoro-[1,1′-biphenyl]-3-yl)carbamoyl)-4-fluoropyrrolidin-1-yl)-2-oxoethyl)-5-(6-fluoropyridin-3-yl)-1H-indazole-3-carboxamide]	< 1000
NC(=O)c1nn(CC(=O)N2[C@@H]3C[C@@H]3C[C@H]2C(=O)Nc2cccc(-c3ccccc3Cl)c2F)c2ccc(-c3ccc(F)nc3)cc12 [Compound 13, 1-(2-((lR,3S,5R)-3-(2′-chloro-2-fluorobiphenyl-3-ylcarbamoyl)-2-azabicyclo[3.1.0]hexan-2-yl)-2-oxoethyl)-5-(6-fluoropyridin-3-yl)-1H-indazole-3-carboxamide]	< 1000
CC(=O)c1cn(CC(=O)N2C[C@H](F)C[C@H]2C(=O)Nc2cccc(Br)n2)c2ccc(-c3cncnc3)cc12 [Compound 14, (2S,4R)-1-(2-(3-acetyl-5-(pyrimidin-5-yl)-1H-indol-1-yl)acetyl)-N-(6-bromopyridin-2-yl)-4-fluoropyrrolidine-2-carboxamide]	< 1000
CC(=O)c1cn(CC(=O)N2[C@@H]3C[C@@H]3C[C@H]2C(=O)Nc2cccc(-c3ccccc3Cl)c2F)c2ccc(-c3cncnc3)cc12 [Compound 15, (1R,3S,5R)-2-(2-(3-acetyl-5-(pyrimidin-5-yl)-1H-indol-1-yl)acetyl)-N-(2′-chloro-2-fluorobiphenyl-3-yl)-2-azabicyclo[3.1.0] hexane-3-carboxamide]	< 1000
CC(=O)c1cn(CC(=O)N2C[C@H](F)C[C@H]2C(=O)Nc2cccc(-c3ccccc3Cl)c2F)c2ccc(N3CCN(C(C)=O)CC3)cc12 [Compound 16, (2S,4R)-1-(2-(3-acetyl-5-(4-acetylpiperazin-1-yl)-1H-indol-1-yl)acetyl)-N-(2′-chloro-2-fluorobiphenyl-3-yl)-4-fluoropyrrolidine-2-carboxamide]	< 1000
CC(=O)c1cn(CC(=O)N2[C@@H]3C[C@@H]3C[C@H]2C(=O)Nc2cccc(Br)n2)c2ccc(-c3cncnc3)cc12 [Compound 17, (1R,3S,5R)-2-(2-(3-acetyl-5-(pyrimidin-5-yl)-1H-indol-1-yl)acetyl)-N-(6-bromopyridin-2-yl)-2-azabicyclo[3.1.0] hexane-3-carboxamide]	< 1000
NC(=O)c1nn(CC(=O)N2C[C@H](F)C[C@H]2C(=O)NCc2cccc(Cl)c2F)c2cnc(-c3cncnc3)cc12 [Compound 18, 1-(2-((2S,4R)-2-(3-chloro-2-fluorobenzylcarbamoyl)-4-fluoropyrrolidin-1-yl)-2-oxoethyl)-5-(pyrimidin-5-yl)-1H-pyrazolo[3,4-c]pyridine-3-carboxamide]	< 1000
NC(=O)c1nn(CC(=O)N2C[C@H](F)C[C@H]2C(=O)Nc2cccc(-c3ccccc3Cl)c2F)c2cnc(-c3cncnc3)cc12 [Compound 19, 1-(2-((2S,4R)-2-(2′-chloro-2-fluorobiphenyl-3-ylcarbamoyl)-4-fluoropyrrolidin-1-yl)-2-oxoethyl)-5-(pyrimidin-5-yl)-1H-pyrazolo[3,4-c]pyridine-3-carboxamide]	< 1000
CC(=O)c1cn(CC(=O)N2C[C@H](F)C[C@H]2C(=O)Nc2cccc(-c3ccccc3Cl)c2F)c2ccc(-c3ccnnc3)cc12 [Compound 20, (2S,4R)-1-(2-(3-Acetyl-5-(pryridazin-4-yl)-1H-indol-1-yl)acetyl)-N-(2′-chloro-2-fluoro-[1,1′-biphenyl]-3-yl)-4-fluoropyrrolidine-2-carboxamide]	< 1000
COc1ncc(-c2ccc3c(c2)c(C(C)=O)cn3CC(=O)N2C[C@H](F)C[C@H]2C(=O)Nc2cccc(Br)n2)cn1 [Compound 21, (2S,4R)-1-(2-(3-acetyl-5-(2-methoxypyrimidin-5-yl)-1H-indol-1-yl)acetyl)-N-(6-bromopyridin-2-yl)-4-fluoropyrrolidine-2-carboxamide]	< 1000
CN1CC=C(c2ccc3c(c2)c(C(N)=O)nn3CC(=O)N2C[C@H](F)C[C@H]2C(=O)Nc2cccc(Br)n2)CC1 [Compound 22, 1-(2-((2S,4R)-2-(6-bromopyridin-2-ylcarbamoyl)-4-fluoropyrrolidin-1-yl)-2-oxoethyl)-5-(1-methyl-1,2,3,6-tetrahydropyridin-4-yl)-1H-indazole-3-carboxamide]	< 1000
NC(=O)c1nn(CC(=O)N2C[C@H](F)C[C@H]2C(=O)Nc2cccc(Br)n2)c2ccc(-c3ccnnc3)cc12 [Compound 25, 1-(2-((2S,4R)-2-(6-bromopyridin-2-ylcarbamoyl)-4-fluoropyrrolidin-1-yl)-2-oxoethyl)-5-(pyridazin-4-yl)-1H-indazole-3-carboxamide]	< 1000
CC(=O)c1cn(CC(=O)N2C[C@H](F)C[C@H]2C(=O)Nc2cccc(-c3ccccc3Cl)c2F)c2ccc(-c3cnc(N4CCCC4)nc3)cc12 [Compound 26, (2S,4R)-1-(2-(3-acetyl-5-(2-(pyrrolidin-1-yl)pyrimidin-5-yl)-1H-indol-1-yl)acetyl)-N-(2′-chloro-2-fluorobiphenyl-3-yl)-4-fluoropyrrolidine-2-carboxamide]	< 1000
COc1ncc(-c2ccc3c(c2)c(C(C)=O)cn3CC(=O)N2C[C@H](F)C[C@H]2C(=O)Nc2cccc(-c3ccccc3Cl)c2F)cn1 [Compound 27, (2S,4R)-1-(2-(3-acetyl-5-(2-methoxypyrimidin-5-yl)-1H-indol-1-yl)acetyl)-N-(2′-chloro-2-fluoro-[1,1′-biphenyl]-3-yl)-4-fluoropyrrolidine-2-carboxamide]	< 1000
COc1ncc(-c2ccc3c(c2)c(C(N)=O)nn3CC(=O)N2C[C@H](F)C[C@H]2C(=O)Nc2cccc(Cl)n2)cn1 [Compound 30, 1-(2-((2S,4R)-2-(6-chloropyridin-2-ylcarbamoyl)-4-fluoropyrrolidin-1-yl)-2-oxoethyl)-5-(2-methoxypyrimidin-5-yl)-1H-indazole-3-carboxamide]	< 1000
CC(=O)c1cn(CC(=O)N2C[C@H](F)C[C@H]2C(=O)Nc2cccc(-c3ccccc3Cl)c2F)c2ccc(N3CCN(c4ncccn4)CC3)cc12 [Compound 31, (2S,4R)-1-(2-(3-acetyl-5-(4-(pyrimidin-2-yl)piperazin-1-yl)-1H-indol-1-yl)acetyl)-N-(2′-chloro-2-fluorobiphenyl-3-yl)-4-fluoropyrrolidine-2-carboxamide]	< 1000
